# Measurements reported in ChEMBL document CHEMBL1145498, “A systematic interaction map of validated kinase inhibitors with Ser/Thr kinases” (Proc Natl Acad Sci U S A, 2007).
# Key:
# [1] = biological target: Cyclin-dependent kinase 6 (Homo sapiens) (UniProt Q00534)
# [2] = biological target: Casein kinase I isoform gamma-2 (Homo sapiens) (UniProt P78368)
# [3] = biological target: Serine/threonine-protein kinase OSR1 (Homo sapiens) (UniProt O95747)
# [4] = biological target: Serine/threonine-protein kinase PLK1 (Homo sapiens) (UniProt P53350)
# [5] = biological target: Serine/threonine-protein kinase pim-3 (Homo sapiens) (UniProt Q86V86)
# [6] = biological target: T1, Dual specificity mitogen-activated protein kinase kinase 6 (Homo sapiens) (UniProt P52564)
# T1 sequence (whole entry): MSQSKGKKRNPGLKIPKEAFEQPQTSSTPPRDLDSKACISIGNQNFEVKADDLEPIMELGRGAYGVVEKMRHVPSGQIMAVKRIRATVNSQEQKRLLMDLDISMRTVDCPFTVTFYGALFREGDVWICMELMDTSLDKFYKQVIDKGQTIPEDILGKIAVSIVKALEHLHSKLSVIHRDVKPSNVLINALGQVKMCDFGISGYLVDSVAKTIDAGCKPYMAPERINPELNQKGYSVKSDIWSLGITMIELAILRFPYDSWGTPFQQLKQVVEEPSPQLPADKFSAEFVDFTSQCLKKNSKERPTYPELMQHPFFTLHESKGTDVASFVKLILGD
# [7] = biological target: Cyclin-dependent kinase 2 (Homo sapiens, UniProt P24941)
# [8] = biological target: Casein kinase I isoform gamma-3 (Homo sapiens) (UniProt Q9Y6M4)
# [9] = biological target: Dual specificity protein kinase CLK1 (Homo sapiens) (UniProt P49759)
# [10] = biological target: Serine/threonine-protein kinase PAK 5 (Homo sapiens) (UniProt Q9P286)
# [11] = biological target: Serine/threonine-protein kinase 26 (Homo sapiens) (UniProt Q9P289)
# [12] = biological target: Cyclin-dependent kinase 16 (Homo sapiens) (UniProt Q00536)
# [13] = biological target: Dual specificity mitogen-activated protein kinase kinase 2 (Homo sapiens, UniProt P36507)
# [14] = biological target: Calcium/calmodulin-dependent protein kinase type II subunit beta (Homo sapiens) (UniProt Q13554)
# [15] = biological target: Tyrosine-protein kinase JAK1 (Homo sapiens) (UniProt P23458)
# [16] = biological target: Cyclin-dependent kinase-like 1 (Homo sapiens) (UniProt Q00532)
# [17] = biological target: STE20-like serine/threonine-protein kinase (Homo sapiens) (UniProt Q9H2G2)
# [18] = biological target: Death-associated protein kinase 3 (Homo sapiens) (UniProt O43293)
# [19] = biological target: Calcium/calmodulin-dependent protein kinase type II subunit delta (Homo sapiens) (UniProt Q13557)
# [20] = biological target: Calcium/calmodulin-dependent protein kinase type II subunit gamma (Homo sapiens) (UniProt Q13555)
# [21] = biological target: Mitogen-activated protein kinase 3 (Homo sapiens, UniProt P27361)
# [22] = biological target: 5'-AMP-activated protein kinase catalytic subunit alpha-2 (Homo sapiens) (UniProt P54646)
# [23] = biological target: Serine/threonine-protein kinase Chk2 (Homo sapiens, UniProt O96017)
# [24] = biological target: Serine/threonine-protein kinase RIO2 (Homo sapiens) (UniProt Q9BVS4)
# [25] = biological target: Calcium/calmodulin-dependent protein kinase type II subunit alpha (Homo sapiens) (UniProt Q9UQM7)
# [26] = biological target: Ribosomal protein S6 kinase alpha-3 (Homo sapiens) (UniProt P51812)
# [27] = biological target: Serine/threonine-protein kinase 38 (Homo sapiens) (UniProt Q15208)
# [28] = biological target: T2, Serine/threonine-protein kinase VRK1 (Homo sapiens) (UniProt Q99986)
# T2 sequence (whole entry): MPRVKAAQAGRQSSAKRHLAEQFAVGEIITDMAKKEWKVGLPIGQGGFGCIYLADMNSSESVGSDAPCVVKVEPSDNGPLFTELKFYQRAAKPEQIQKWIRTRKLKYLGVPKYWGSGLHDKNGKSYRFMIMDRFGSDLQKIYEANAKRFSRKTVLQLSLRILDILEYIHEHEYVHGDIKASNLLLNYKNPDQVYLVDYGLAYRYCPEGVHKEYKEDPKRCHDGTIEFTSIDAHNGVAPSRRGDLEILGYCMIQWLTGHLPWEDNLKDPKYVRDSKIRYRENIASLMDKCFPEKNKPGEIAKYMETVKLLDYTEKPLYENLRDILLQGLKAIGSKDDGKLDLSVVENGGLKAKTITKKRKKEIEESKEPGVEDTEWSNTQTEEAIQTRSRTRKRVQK
# [29] = biological target: T3, Serine/threonine-protein kinase VRK3 (Homo sapiens) (UniProt Q8IV63)
# T3 sequence (whole entry): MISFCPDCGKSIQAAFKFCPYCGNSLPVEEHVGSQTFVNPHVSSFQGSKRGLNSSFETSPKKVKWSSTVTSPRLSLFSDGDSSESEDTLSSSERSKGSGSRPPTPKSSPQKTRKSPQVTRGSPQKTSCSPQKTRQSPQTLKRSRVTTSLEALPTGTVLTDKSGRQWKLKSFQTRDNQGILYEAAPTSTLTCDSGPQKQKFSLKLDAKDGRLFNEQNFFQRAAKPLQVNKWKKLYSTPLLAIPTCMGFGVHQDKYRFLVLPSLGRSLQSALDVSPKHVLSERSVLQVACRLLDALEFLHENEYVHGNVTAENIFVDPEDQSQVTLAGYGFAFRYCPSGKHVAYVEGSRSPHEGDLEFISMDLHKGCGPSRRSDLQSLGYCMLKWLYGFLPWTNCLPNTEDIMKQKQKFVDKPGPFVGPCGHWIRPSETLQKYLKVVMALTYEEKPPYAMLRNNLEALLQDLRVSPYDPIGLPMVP
# Sequence of Serine/threonine-protein kinase PAK 5 (Homo sapiens) (Q9P286 whole entry, looked up): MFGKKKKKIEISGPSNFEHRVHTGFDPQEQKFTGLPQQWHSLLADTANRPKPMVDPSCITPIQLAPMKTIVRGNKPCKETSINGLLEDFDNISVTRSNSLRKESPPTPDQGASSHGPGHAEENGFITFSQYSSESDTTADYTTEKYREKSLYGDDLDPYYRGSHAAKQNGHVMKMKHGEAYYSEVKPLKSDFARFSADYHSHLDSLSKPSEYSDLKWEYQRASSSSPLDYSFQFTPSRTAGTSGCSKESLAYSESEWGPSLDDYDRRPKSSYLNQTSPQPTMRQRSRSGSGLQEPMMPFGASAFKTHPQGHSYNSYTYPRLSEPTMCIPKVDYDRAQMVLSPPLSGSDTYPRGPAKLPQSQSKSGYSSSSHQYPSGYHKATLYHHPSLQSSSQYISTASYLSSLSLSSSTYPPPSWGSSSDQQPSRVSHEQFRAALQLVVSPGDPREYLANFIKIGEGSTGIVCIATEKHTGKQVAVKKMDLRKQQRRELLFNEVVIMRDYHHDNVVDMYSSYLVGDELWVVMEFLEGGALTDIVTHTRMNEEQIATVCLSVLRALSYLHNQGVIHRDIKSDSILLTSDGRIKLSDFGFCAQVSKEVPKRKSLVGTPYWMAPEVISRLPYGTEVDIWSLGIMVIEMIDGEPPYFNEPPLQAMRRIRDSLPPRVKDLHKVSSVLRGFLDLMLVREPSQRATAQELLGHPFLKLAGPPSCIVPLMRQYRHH
# Sequence of Serine/threonine-protein kinase 38 (Homo sapiens) (Q15208 2-465 limits assumed): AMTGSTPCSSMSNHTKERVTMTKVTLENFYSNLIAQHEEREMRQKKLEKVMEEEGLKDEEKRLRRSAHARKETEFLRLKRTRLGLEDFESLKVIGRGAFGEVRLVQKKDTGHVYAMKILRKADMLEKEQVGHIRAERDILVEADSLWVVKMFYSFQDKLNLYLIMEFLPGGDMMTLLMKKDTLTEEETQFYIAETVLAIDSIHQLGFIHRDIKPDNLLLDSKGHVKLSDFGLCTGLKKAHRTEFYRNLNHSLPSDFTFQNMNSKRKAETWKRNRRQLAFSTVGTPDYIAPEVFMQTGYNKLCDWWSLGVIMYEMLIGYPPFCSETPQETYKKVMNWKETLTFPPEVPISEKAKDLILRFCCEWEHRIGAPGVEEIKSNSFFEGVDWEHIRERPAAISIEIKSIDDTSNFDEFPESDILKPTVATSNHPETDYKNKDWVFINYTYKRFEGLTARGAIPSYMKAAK
# Sequence of Tyrosine-protein kinase JAK1 (Homo sapiens) (P23458 whole entry): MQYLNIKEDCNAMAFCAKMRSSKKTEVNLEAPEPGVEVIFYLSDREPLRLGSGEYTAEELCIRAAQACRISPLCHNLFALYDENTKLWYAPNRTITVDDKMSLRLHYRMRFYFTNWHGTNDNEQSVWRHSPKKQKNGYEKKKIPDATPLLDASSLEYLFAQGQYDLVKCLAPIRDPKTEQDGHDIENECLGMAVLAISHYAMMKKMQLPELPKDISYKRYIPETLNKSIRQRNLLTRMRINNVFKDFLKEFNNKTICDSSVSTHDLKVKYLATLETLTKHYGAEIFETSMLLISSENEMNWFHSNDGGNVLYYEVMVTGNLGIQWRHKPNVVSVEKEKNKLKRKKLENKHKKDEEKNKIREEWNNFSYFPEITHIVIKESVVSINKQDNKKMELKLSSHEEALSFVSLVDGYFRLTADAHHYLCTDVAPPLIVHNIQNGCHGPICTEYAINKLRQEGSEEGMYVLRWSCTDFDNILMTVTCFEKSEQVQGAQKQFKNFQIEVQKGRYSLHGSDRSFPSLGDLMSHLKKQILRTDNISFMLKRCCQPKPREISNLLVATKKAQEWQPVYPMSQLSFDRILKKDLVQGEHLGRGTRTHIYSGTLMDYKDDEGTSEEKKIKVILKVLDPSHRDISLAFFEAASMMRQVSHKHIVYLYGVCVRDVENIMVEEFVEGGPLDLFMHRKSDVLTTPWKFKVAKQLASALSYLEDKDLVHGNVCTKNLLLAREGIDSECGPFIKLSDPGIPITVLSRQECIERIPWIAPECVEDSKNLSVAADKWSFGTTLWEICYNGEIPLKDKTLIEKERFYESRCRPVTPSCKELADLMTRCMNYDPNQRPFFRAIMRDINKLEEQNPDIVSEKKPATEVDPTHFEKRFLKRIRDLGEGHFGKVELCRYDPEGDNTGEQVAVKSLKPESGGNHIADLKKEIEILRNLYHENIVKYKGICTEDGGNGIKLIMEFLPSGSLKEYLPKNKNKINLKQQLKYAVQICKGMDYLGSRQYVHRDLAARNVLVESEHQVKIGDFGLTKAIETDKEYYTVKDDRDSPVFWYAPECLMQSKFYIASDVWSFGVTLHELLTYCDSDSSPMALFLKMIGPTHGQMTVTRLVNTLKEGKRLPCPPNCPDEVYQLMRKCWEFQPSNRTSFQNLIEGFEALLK
# Sequence of Mitogen-activated protein kinase 3 (P27361 whole entry): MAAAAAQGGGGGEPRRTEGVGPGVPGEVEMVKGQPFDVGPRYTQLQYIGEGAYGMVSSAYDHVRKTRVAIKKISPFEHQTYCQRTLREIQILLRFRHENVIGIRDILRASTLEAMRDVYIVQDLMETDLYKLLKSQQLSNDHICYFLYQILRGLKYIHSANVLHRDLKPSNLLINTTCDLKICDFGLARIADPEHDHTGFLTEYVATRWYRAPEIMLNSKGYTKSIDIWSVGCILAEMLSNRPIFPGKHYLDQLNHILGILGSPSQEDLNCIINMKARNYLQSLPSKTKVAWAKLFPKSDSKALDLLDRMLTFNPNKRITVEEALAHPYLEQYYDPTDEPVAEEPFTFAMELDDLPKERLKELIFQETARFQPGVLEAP
# Sequence of Casein kinase I isoform gamma-3 (Homo sapiens) (Q9Y6M4 whole entry, looked up, canonical isoform): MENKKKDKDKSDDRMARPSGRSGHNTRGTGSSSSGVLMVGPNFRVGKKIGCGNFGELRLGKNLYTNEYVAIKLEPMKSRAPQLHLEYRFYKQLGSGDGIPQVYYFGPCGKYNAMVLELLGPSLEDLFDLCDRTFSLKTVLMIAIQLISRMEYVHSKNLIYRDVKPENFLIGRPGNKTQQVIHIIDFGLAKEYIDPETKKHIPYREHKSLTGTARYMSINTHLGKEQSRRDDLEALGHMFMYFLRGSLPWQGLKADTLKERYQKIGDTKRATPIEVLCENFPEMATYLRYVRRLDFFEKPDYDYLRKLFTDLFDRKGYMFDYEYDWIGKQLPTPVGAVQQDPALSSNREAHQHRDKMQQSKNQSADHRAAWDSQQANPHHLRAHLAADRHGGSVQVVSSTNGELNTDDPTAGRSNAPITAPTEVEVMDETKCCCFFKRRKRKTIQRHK
# Sequence of Calcium/calmodulin-dependent protein kinase type II subunit gamma (Homo sapiens) (Q13555 whole entry): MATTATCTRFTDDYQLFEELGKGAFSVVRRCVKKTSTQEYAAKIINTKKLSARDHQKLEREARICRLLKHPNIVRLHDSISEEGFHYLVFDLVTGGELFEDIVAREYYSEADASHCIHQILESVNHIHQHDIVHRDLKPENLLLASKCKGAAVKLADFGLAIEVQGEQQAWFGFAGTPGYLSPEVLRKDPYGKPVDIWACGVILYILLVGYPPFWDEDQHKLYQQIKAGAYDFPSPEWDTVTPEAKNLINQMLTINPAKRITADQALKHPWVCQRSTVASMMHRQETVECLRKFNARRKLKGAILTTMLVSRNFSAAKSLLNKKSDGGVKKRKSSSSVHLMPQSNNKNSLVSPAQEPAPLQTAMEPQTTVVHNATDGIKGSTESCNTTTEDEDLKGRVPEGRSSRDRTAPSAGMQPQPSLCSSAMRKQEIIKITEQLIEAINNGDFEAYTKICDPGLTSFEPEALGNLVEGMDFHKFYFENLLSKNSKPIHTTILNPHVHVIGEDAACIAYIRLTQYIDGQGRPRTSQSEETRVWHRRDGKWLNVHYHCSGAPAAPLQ
# Sequence of Calcium/calmodulin-dependent protein kinase type II subunit delta (Homo sapiens) (Q13557 whole entry): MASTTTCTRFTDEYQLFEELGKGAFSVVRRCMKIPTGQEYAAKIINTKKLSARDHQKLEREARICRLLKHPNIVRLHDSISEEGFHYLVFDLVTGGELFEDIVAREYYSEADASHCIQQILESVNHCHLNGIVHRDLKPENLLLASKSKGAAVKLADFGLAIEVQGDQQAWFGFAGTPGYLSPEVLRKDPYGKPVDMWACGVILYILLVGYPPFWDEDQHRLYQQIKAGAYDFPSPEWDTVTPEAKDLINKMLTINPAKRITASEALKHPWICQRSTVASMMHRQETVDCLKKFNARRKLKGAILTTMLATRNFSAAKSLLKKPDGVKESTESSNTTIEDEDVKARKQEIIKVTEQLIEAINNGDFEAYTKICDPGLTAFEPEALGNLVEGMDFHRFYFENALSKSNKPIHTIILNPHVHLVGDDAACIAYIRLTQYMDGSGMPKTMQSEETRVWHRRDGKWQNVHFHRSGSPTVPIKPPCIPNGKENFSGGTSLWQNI
# Sequence of Cyclin-dependent kinase 6 (Homo sapiens) (Q00534 whole entry, canonical isoform): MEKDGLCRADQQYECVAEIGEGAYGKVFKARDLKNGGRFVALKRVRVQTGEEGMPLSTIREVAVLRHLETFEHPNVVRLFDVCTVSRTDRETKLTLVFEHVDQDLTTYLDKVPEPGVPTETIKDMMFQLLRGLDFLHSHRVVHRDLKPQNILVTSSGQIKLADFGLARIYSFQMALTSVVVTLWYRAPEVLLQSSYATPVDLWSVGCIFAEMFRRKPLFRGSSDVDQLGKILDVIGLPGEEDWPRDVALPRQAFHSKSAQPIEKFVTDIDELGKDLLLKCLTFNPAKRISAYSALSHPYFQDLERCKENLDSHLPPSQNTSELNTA
# Sequence of Casein kinase I isoform gamma-2 (Homo sapiens) (P78368 whole entry, looked up, canonical isoform): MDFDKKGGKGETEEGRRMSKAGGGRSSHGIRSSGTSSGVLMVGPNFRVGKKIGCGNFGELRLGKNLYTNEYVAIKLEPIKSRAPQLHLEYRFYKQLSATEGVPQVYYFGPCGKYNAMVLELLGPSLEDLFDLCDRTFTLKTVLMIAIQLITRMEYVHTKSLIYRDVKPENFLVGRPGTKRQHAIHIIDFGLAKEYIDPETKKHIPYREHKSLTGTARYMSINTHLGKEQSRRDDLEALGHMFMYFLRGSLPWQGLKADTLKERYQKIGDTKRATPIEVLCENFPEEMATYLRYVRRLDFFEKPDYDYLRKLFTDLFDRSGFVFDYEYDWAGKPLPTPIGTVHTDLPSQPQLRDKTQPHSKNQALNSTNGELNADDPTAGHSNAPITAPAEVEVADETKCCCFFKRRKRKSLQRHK
SMILES,ΔTm [1] [°C],ΔTm [2] [°C],ΔTm [3] [°C],ΔTm [4] [°C],ΔTm [5] [°C],ΔTm [6] [°C],ΔTm [9] [°C],ΔTm [10] [°C],ΔTm [11] [°C],ΔTm [15] [°C],ΔTm [16] [°C],ΔTm [17] [°C],ΔTm [19] [°C],ΔTm [20] [°C],ΔTm [21] [°C],ΔTm [22] [°C],ΔTm [23] [°C],ΔTm [24] [°C],ΔTm [27] [°C],ΔTm [28] [°C],other results
COc1cc2ncnc(Nc3ccc(NC(=O)c4ccccc4)cc3)c2cc1OC [ANILINOQUINAZOLINE1],1.1,0.5,0.3,-0.5,6.2,0.2,1,-0.2,1.8,1.9,0,0.1,0.4,0.2,0.4,0.8,7.3,0.6,0.9,0.5,ΔTm [7]: -0.5 °C; ΔTm [8]: 0.3 °C; ΔTm [12]: -1.4 °C; ΔTm [13]: 0 °C; ΔTm [14]: 0.3 °C; ΔTm [18]: 0.5 °C; ΔTm [25]: 0 °C; ΔTm [26]: 9.4 °C
COc1ccc2c(c1)/C(=C/c1cnc[nH]1)C(=O)N2 [SU-9516],3,0.7,1.3,0.7,2.3,5.1,3.4,1.2,4.2,8.4,5.8,3.3,-0.5,1,2.6,4.1,1.6,1.3,3.4,0.5,ΔTm [8]: 0.5 °C; ΔTm [12]: 3.3 °C; ΔTm [13]: 1.7 °C; ΔTm [29]: 0.3 °C; ΔTm [18]: 2.7 °C; ΔTm [25]: 1 °C
CC[C@H](CO)Nc1nc(NCc2ccccc2)c2ncn(C(C)C)c2n1 [SELICICLIB],0.2,,1,1,0.5,0.2,2.1,0.6,0.6,0.1,0.2,0.2,0.1,0.3,0.4,0.4,0,0,0.3,0,ΔTm [29]: 0.6 °C; ΔTm [14]: 0.3 °C; ΔTm [26]: 1.4 °C
CCCNC(=O)Nc1ccc(Oc2ncnc3cc(OC)c(OC)cc23)cc1Cl [KRN-633],0.6,0.5,0.3,0.1,4.9,0,-1.7,-0.2,1.2,1,0.8,0.5,0.3,0.3,0.5,2.1,2.4,0.2,1.6,0.3,ΔTm [7]: -0.4 °C; ΔTm [8]: -3.7 °C; ΔTm [12]: -0.1 °C; ΔTm [13]: 0.2 °C; ΔTm [14]: 0.8 °C; ΔTm [18]: 1.3 °C; ΔTm [25]: 0.8 °C; ΔTm [26]: 10.7 °C
NCCNc1ncc(C(N)=O)c(Nc2cccc(C(F)(F)F)c2)n1,1.1,0.7,5.4,0.7,1.1,1.6,2.2,5.2,1,1.4,0.6,0.1,-0.6,1.1,0.9,0.3,6.6,4.7,2.5,3.6,ΔTm [7]: 0.1 °C; ΔTm [8]: 5.9 °C; ΔTm [12]: 0.1 °C; ΔTm [13]: 5.1 °C; ΔTm [14]: 0.4 °C; ΔTm [18]: 3.2 °C; ΔTm [25]: -0.3 °C; ΔTm [26]: 2.6 °C
Cc1[nH]c(/C=C2\C(=O)Nc3ccc(S(=O)(=O)N(C)c4cccc(Cl)c4)cc32)c(C)c1C(=O)N1CCN(C)CC1,-0.4,0.3,1.6,1.9,9.7,3,2.1,0.9,5,3.4,-0.5,2.4,0.5,0.6,0.1,4,2.9,1.4,4.2,1.5,ΔTm [7]: -0.4 °C; ΔTm [8]: 1.1 °C; ΔTm [12]: -0.6 °C; ΔTm [13]: 1 °C; ΔTm [14]: 0.8 °C; ΔTm [18]: 2.6 °C; ΔTm [25]: 3 °C; ΔTm [26]: 11.3 °C
COc1cc2c(cc1OC)-c1n[nH]c(Nc3cccc(F)c3)c1C2,1.7,0.3,0.6,-0.2,2.6,0.3,0.1,-0.1,1.2,0.4,-0.1,2.1,1.2,-0.1,0.6,-0.3,-0.1,-0.2,2.4,0.4,ΔTm [7]: 0 °C; ΔTm [8]: 0.8 °C; ΔTm [12]: -0.3 °C; ΔTm [13]: 0.7 °C; ΔTm [14]: -0.3 °C; ΔTm [18]: 0.2 °C; ΔTm [25]: 0.3 °C; ΔTm [26]: 2.8 °C
CCCCc1c(-c2ccc(O)cc2)[nH]c2nccnc12 [ALOISINE A],1.3,2.2,1.6,2.8,7.7,0.7,3.5,2.2,1.1,0.5,0.1,6.8,1.8,1.1,0.5,2.2,5.7,-1.8,4,-0.2,ΔTm [7]: 4.7 °C; ΔTm [8]: 2.5 °C; ΔTm [12]: -0.5 °C; ΔTm [13]: 2.1 °C; ΔTm [14]: 0.5 °C; ΔTm [18]: 2.3 °C; ΔTm [25]: 0.1 °C; ΔTm [26]: 1.9 °C
